“Also recorded” adds a separate entry of the source. Where two headings read alike, the source gives them in different places.
Tests used:
ABCC2/MRP2 = target: T1, ABCC2/MRP2 (Homo sapiens, UniProt Q92887); assay: MRP2 vesicular transport: ATP-dependent CDCF uptake into inverted Sf9 membrane vesicles; type: biochemical; settings: CDCF 5 µM, 37 °C, 10 min; for ABCC2/MRP2 Type of effect: Sf9 vesicles
T1 construct: made in house; host or cells: Sf9 insect cells (baculovirus)

ABCC3/MRP3 = target: T2, ABCC3/MRP3 (Homo sapiens, UniProt O15438); assay: MRP3 vesicular transport: ATP- and benzbromarone-sensitive CDCF uptake into inverted HEK-293 membrane vesicles; type: biochemical; settings: for ABCC3/MRP3 Type of effect: HEK-293 vesicles; for concentration at which MRP3 transport is inhibited: CDCF uptake
T2 construct: purchased Solvo Biotechnology (Budapest, Hungary); host or cells: HEK-293 cells
T2 sequence (O15438 whole entry): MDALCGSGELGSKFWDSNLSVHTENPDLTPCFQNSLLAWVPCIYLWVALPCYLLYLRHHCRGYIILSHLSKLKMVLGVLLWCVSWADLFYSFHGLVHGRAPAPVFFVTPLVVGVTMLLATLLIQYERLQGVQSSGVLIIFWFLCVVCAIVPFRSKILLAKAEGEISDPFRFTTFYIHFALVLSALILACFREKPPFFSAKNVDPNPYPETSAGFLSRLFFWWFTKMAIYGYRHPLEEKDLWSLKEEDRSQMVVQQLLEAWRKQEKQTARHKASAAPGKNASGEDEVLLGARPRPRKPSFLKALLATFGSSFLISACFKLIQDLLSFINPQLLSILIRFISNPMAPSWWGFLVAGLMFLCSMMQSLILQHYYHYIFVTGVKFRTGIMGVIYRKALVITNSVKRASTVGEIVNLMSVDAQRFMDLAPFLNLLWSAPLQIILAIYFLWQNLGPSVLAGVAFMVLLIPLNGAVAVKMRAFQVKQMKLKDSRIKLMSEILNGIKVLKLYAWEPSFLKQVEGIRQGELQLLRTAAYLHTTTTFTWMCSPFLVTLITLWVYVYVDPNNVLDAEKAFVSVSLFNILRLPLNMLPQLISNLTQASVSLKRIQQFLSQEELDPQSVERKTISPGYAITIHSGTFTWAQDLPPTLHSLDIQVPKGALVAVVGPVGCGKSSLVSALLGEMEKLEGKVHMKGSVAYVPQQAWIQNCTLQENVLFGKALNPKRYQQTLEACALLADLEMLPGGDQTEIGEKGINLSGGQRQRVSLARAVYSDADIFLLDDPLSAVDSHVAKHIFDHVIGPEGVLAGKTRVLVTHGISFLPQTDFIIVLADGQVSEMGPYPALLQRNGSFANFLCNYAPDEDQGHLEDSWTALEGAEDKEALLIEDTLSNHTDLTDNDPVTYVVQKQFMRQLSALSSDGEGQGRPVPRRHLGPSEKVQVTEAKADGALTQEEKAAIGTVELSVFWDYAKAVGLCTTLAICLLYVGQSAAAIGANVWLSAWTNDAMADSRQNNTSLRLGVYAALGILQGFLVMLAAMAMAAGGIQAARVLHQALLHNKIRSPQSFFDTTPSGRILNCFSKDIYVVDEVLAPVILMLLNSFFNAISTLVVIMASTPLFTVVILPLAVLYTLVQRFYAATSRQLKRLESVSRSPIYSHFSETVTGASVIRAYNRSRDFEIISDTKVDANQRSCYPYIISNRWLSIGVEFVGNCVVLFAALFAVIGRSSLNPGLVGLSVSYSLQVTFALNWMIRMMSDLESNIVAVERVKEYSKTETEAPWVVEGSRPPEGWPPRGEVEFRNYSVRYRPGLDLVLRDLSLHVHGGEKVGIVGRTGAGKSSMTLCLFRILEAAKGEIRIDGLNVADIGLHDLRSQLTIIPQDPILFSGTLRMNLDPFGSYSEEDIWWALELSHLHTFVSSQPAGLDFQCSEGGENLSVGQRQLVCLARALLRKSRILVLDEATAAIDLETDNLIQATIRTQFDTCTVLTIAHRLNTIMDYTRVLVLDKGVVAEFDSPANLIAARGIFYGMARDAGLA

MATE1/SLC47A1 = target: T3, MATE1/SLC47A1 (Homo sapiens, UniProt Q96FL8); assay: MATE1-dependent metformin uptake in MATE1-overexpressing MDCKII cells; type: cell-based; settings: for MATE1/SLC47A1 Type of effect: metformin 10 µM, 10 min, 37 °C, MDCKII cells
T3 construct: expressed in transfected cells; host or cells: MDCKII cells, lentiviral transduction
T3 sequence (Q96FL8 1-570): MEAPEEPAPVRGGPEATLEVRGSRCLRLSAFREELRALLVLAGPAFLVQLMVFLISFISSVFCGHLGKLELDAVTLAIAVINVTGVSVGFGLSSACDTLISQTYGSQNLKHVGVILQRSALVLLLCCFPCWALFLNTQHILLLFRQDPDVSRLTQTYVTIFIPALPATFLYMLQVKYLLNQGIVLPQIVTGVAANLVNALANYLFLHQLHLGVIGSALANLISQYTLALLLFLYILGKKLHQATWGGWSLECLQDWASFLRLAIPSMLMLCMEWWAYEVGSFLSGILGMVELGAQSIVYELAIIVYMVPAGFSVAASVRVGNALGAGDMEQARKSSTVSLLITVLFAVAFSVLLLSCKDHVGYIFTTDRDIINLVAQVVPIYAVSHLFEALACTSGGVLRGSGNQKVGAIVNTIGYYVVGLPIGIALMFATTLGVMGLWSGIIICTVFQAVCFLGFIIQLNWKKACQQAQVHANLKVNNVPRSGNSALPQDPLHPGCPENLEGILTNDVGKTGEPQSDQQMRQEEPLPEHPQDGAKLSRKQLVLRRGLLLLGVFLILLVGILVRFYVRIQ

OATP1B1 = target: T4, OATP1B1 (Homo sapiens, UniProt Q9Y6L6); assay: OATP1B1-dependent pyranine uptake in overexpressing A431 cells; type: cell-based; settings: for OATP1B1 Type of effect: A431 cells
T4 construct: expressed in transfected cells; host or cells: A431 cells (ATCC)
T4 sequence (Q9Y6L6 1-691): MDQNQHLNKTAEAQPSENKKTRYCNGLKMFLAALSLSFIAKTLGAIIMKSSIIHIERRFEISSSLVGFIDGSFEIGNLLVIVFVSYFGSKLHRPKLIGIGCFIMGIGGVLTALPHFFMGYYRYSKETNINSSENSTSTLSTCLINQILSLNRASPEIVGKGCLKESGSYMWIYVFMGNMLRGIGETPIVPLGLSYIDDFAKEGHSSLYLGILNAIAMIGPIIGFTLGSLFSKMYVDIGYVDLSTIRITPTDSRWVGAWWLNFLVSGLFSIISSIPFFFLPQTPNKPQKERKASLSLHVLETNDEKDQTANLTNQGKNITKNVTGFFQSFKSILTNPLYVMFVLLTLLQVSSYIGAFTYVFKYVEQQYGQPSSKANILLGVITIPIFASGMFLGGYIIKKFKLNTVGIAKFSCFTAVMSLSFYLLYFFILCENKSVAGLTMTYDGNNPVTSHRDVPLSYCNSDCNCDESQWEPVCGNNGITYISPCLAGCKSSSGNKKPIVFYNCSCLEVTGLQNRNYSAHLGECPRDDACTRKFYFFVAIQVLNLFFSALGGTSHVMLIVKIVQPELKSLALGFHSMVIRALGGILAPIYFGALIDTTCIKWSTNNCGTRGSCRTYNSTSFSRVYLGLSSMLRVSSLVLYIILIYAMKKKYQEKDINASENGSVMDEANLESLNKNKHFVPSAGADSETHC

OATP1B3 = target: T5, OATP1B3 (Homo sapiens, UniProt Q9NPD5); assay: OATP1B3-dependent pyranine uptake in overexpressing A431 cells; type: cell-based; settings: for OATP1B3 Type of effect: A431 cells
T5 construct: expressed in transfected cells; host or cells: A431 cells (ATCC)
T5 sequence (Q9NPD5 1-702): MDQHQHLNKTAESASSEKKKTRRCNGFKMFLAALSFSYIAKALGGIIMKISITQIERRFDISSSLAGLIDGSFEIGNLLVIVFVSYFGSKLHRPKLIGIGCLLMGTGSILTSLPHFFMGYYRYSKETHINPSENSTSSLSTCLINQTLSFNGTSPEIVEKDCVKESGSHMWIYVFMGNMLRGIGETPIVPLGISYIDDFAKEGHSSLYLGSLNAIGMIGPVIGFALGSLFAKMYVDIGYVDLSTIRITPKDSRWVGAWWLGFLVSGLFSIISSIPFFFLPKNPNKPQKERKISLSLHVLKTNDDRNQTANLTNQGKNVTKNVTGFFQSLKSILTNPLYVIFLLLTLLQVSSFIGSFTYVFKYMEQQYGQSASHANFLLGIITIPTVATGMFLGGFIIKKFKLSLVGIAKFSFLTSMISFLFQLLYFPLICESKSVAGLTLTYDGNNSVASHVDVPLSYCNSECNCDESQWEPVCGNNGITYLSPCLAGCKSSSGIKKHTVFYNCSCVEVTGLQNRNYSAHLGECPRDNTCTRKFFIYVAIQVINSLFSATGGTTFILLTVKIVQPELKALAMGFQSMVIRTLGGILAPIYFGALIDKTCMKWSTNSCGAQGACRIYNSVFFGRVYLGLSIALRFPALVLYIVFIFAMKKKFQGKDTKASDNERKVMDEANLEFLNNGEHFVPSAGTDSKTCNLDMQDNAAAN

ABCB1/Pgp = test system: ABCB1/Pgp; set-up: method as in Telbisz et al., 2021; settings: vesicular transporter assay, measured previously; ref Telbisz et al., 2021; cited from earlier work
ABCG2/BCRP = test system: ABCG2/BCRP; set-up: method as in Telbisz et al., 2021; settings: vesicular transporter assay, measured previously; ref Telbisz et al., 2021; cited from earlier work
[1] = cited from earlier work

T1 sequence (Q92887 whole entry): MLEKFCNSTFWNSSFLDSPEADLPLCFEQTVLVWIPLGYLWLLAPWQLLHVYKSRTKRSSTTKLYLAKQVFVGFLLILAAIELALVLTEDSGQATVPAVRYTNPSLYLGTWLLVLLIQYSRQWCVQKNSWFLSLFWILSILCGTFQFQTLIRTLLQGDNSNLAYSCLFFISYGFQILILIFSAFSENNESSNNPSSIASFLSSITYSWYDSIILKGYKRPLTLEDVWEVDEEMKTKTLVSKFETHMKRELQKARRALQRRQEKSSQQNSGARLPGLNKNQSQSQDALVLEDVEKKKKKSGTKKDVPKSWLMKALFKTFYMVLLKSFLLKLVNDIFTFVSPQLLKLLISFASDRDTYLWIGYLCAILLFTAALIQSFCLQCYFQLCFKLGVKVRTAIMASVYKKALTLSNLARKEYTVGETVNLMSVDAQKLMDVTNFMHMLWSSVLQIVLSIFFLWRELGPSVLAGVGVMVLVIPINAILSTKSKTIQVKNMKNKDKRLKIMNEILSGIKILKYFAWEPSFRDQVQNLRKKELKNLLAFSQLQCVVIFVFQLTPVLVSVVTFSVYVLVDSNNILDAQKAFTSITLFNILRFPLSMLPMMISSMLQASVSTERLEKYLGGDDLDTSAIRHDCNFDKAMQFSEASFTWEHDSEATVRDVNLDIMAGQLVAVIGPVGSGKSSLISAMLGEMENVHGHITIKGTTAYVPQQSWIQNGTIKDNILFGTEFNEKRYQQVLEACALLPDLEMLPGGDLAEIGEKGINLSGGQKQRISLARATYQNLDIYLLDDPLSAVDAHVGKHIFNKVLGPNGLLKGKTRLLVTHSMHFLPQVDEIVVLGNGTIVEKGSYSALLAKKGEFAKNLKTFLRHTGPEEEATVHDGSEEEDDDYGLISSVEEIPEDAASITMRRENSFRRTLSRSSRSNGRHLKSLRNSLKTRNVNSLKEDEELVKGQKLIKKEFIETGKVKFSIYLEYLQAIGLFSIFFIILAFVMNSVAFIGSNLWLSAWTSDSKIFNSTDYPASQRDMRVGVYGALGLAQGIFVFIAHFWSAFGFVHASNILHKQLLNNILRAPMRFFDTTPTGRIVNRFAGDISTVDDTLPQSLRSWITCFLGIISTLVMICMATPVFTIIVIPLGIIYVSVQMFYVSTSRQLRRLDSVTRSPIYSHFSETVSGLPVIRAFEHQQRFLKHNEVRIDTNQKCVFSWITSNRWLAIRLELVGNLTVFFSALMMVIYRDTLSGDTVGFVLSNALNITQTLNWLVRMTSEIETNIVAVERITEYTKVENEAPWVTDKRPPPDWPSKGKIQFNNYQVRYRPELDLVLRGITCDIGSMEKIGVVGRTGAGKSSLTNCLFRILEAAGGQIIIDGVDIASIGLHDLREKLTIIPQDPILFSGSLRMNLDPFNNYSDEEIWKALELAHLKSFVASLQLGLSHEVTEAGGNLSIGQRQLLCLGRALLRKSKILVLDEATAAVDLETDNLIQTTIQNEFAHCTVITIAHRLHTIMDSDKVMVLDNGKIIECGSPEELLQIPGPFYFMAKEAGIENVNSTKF

Row | SMILES | ABCC2/MRP2 Type of effect (ABCC2/MRP2) | ABCC3/MRP3 Type of effect (ABCC3/MRP3; CDCF 5 µM, 37 °C, 10 min) | MATE1/SLC47A1 Type of effect (MATE1/SLC47A1) | OATP1B1 Type of effect (OATP1B1; pyranine 10 µM, 15 min, 37 °C) | OATP1B3 Type of effect (OATP1B3; pyranine 20 µM, 30 min, 37 °C) | concentration at which MRP3 transport is inhibited (ABCC3/MRP3) | IC50 (MATE1/SLC47A1) | IC50 (OATP1B1) | IC50 (OATP1B3) | ABCB1/Pgp Type of effect (ABCB1/Pgp) | IC50 (ABCB1/Pgp) | ABCG2/BCRP type of effect (ABCG2/BCRP) | IC50 (ABCG2/BCRP) | also measured
1 | NC(=O)c1nc(F)c[nH]c1=O [FAV, favipiravir] | no such effect | did not influence MRP3 transport at all | practically no inhibition | did not modify OATP functionality | did not modify OATP functionality |  |  |  |  |  |  |  |  | 
2 | Cc1cccc(C)c1OCC(=O)N[C@@H](Cc1ccccc1)[C@@H](O)C[C@H](Cc1ccccc1)NC(=O)[C@H](C(C)C)N1CCCNC1=O [LOP, lopinavir] | no such effect | inh | strong inhibitory action and inh |  |  | > 20 µM | 7700 nM | 1100 nM | 2600 nM | inh | 600 nM | inh | 4200 nM | IC50 (ABCC3/MRP3): > 40000 nM; peak plasma concentrations in vivo ([1]; Kaletra 400 mg lopinavir and 100 mg ritonavir in combination): 11 to 20 µM
3 | CCC(C)C1OC2(CCC1C)CC1CC(CC=C(C)C(OC3CC(OC)C(OC4CC(OC)C(O)C(C)O4)C(C)O3)C(C)C=CC=C3COC4C(O)C(C)=CC(C(=O)O1)C34O)O2 (stereo not drawn) [IVE, ivermectin] | strongly decreased the accumulation of the probe substrate and inh | inh | practically no inhibition; also recorded: No effect | inh | inh | > 20 µM |  |  |  | inh | 300 nM | inh | 1100 nM | IC50 (ABCC2/MRP2; approximate IC50): ≥ 20000 nM; IC50 (ABCC3/MRP3; approximate IC50, CDCF 5 µM, 37 °C, 10 min): > 50000 nM; IC50 (OATP1B1; approximate IC50, pyranine 10 µM, 15 min, 37 °C): ≥ 20000 nM; OATP1B3 R value (OATP1B3; DDI estimate, cut off 1.1, 165 µg/kg IVE dose, peak plasma 46 ng/ml): 1.07; IC50 (OATP1B3; approximate IC50, pyranine 20 µM, 30 min, 37 °C): 1400 nM; peak plasma concentration ([1]; 165 µg/kg IVE dose, ref FDA guideline for stromectol): 46 ng/mL
4 | CCC(CC)COC(=O)[C@H](C)N[P@](=O)(OC[C@H]1O[C@@](C#N)(c2ccc3c(N)ncnn23)[C@H](O)[C@@H]1O)Oc1ccccc1 [REM, remdesivir] | did not inhibit but rather increased the probe substrate transport at high concentrations; also recorded: Increase | did not influence MRP3 transport at all; also recorded: did not inhibit; also recorded: No effect | strong inhibitory action and inh | inh | inh |  | 2300 nM | 2900 nM | 4300 nM | inh | > 20000 nM | inh | > 50000 nM | T1/2 ([1]; clearance from the human body): 1.15 h; Cmax ([1]; intravenous 100 mg, healthy adults, ref FDA label 214787Orig1s000): 3.7 µM

— publication PMC8426393, “Interactions of anti-COVID-19 drug candidates with hepatic transporters may cause liver toxicity and affect pharmacokinetics” (Scientific Reports, 2021)
